# Source: patent US8178506B2, “Oligomeric compounds and compositions for use in modulation of small non-coding RNAs” (Regulus Therapeutics Inc., priority 2003, dated 2012)
# In the oligonucleotide strings, read from the 5' end, every base follows the letter of its sugar. An asterisk marks phosphorothioate; unmarked linkages are phosphodiester. Other units and linkages are bracketed, terminal groups are in braces. A string of capitals states the bases alone. e = 2'-O-(2-methoxyethyl) (MOE); [5mC] = 5-methylcytosine; d = 2'-deoxy (DNA)
# Tested on: T47D cells
# Experiment: Caspase-3 activity assay (apoptosis) in T47D cells
# Settings: T47D cells, 48 hours; for Fold Increase over UTC (caspase-3 activity, apoptosis): 200 nM oligomeric compound; for Fold Increase over UTC (caspase activity): 200 nM, relative to untreated control
substance,measurement,setting,value
328373 (eG*eG*eG*eA*eA*dG*dG*dA*dT*dT*dG*d[5mC]*d[5mC]*dT*dA*eG*e[5mC]*eA*eG*eT; antisense) [compound 328373],"Fold Increase over UTC (caspase-3 activity, apoptosis)",experiment of Table 12,0.9 fold
328375 (eT*eA*e[5mC]*e[5mC]*eA*dT*dA*d[5mC]*dA*dG*dA*dA*dA*d[5mC]*dA*e[5mC]*eA*eG*e[5mC]*eA; antisense) [compound 328375],"Fold Increase over UTC (caspase-3 activity, apoptosis)",experiment of Table 10,0.9 fold
328376 (eT*e[5mC]*eA*e[5mC]*eA*dA*dT*d[5mC]*d[5mC]*d[5mC]*d[5mC]*dA*d[5mC]*d[5mC]*dA*eA*eA*e[5mC]*eT*e[5mC]; antisense) [compound 328376],"Fold Increase over UTC (caspase-3 activity, apoptosis)",experiment of Table 11,0.7 fold
328378 (e[5mC]*eA*e[5mC]*e[5mC]*e[5mC]*dT*d[5mC]*d[5mC]*dA*dG*dT*dG*d[5mC]*dT*dG*eT*eT*eA*eG*eT; antisense) [compound 328378],Fold Increase over UTC (caspase activity),,1.0
328379 (e[5mC]*eT*eG*eA*e[5mC]*dT*dG*dA*dG*dA*d[5mC]*dT*dG*dT*dT*e[5mC]*eA*e[5mC]*eA*eG; antisense) [compound 328379],"Fold Increase over UTC (caspase-3 activity, apoptosis)",experiment of Table 12,1.1 fold
328381 (eA*e[5mC]*eA*eG*eG*dT*dG*dA*dG*d[5mC]*dG*dG*dA*dT*dG*eT*eT*e[5mC]*eT*eG; antisense) [compound 328381],Fold Increase over UTC (caspase activity),,1.1
328385 (eA*eG*eT*eG*e[5mC]*dT*dA*dA*dT*dA*d[5mC]*dT*dT*d[5mC]*dT*eT*eT*e[5mC]*eA*eT; antisense) [compound 328385],"Fold Increase over UTC (caspase-3 activity, apoptosis)",experiment of Table 10,0.9 fold
328386 (eA*e[5mC]*e[5mC]*eT*eG*dT*dG*dT*dA*dA*d[5mC]*dA*dG*d[5mC]*d[5mC]*eG*eT*eG*eT*eA; antisense) [compound 328386],"Fold Increase over UTC (caspase-3 activity, apoptosis)",experiment of Table 11,0.7 fold
328387 (eT*eT*eA*eT*e[5mC]*dG*dG*dA*dA*d[5mC]*dT*dT*d[5mC]*dA*d[5mC]*eA*eG*eA*eG*eA; antisense) [compound 328387],"Fold Increase over UTC (caspase-3 activity, apoptosis)",experiment of Table 12,1.4 fold
328389 (eG*eG*e[5mC]*eA*e[5mC]*dT*dT*d[5mC]*dA*dT*dT*dG*d[5mC]*dT*dG*e[5mC]*eT*eG*e[5mC]*e[5mC]; antisense) [compound 328389],"Fold Increase over UTC (caspase-3 activity, apoptosis)",experiment of Table 12,1.1 fold
328390 (eG*eG*eA*eG*e[5mC]*d[5mC]*dT*dT*dG*d[5mC]*dG*d[5mC]*dT*d[5mC]*dA*eG*e[5mC]*eA*eT*eT; antisense) [compound 328390],"Fold Increase over UTC (caspase-3 activity, apoptosis)",experiment of Table 11,0.9 fold
328391 (eA*eT*eG*eG*eT*dA*dA*dT*dT*dT*d[5mC]*dA*dT*dT*dT*e[5mC]*eA*eG*eG*e[5mC]; antisense) [compound 328391],Fold Increase over UTC (caspase activity),,0.8
328392 (eG*eA*eT*eT*eG*d[5mC]*dA*d[5mC]*dA*dT*d[5mC]*d[5mC]*dA*d[5mC]*dA*e[5mC]*eT*eG*eT*e[5mC]; antisense) [compound 328392],Fold Increase over UTC (caspase activity),,1.0
328393 (eG*e[5mC]*eT*eG*eG*d[5mC]*d[5mC]*dT*dG*dA*dT*dA*dG*d[5mC]*d[5mC]*e[5mC]*eT*eT*e[5mC]*eT; antisense) [compound 328393],"Fold Increase over UTC (caspase-3 activity, apoptosis)",experiment of Table 11,1.5 fold
328395 (antisense e[5mC]*e[5mC]*e[5mC]*eA*eG*dT*dG*dG*dT*dG*dG*dG*dT*dG*dT*eG*eA*e[5mC]*e[5mC]*e[5mC]) [compound 328395],"Fold Increase over UTC (caspase-3 activity, apoptosis)",experiment of Table 10,1.0 fold
328398 (antisense eG*e[5mC]*e[5mC]*eA*eT*dT*dG*dG*dG*dA*d[5mC]*d[5mC]*dT*dG*d[5mC]*eA*e[5mC]*eA*eG*e[5mC]) [compound 328398],"Fold Increase over UTC (caspase-3 activity, apoptosis)",experiment of Table 10,0.9 fold
328399 (antisense eA*eT*eG*eG*eG*dT*dA*d[5mC]*d[5mC]*dA*d[5mC]*d[5mC]*dA*dG*dA*eA*e[5mC]*eA*eT*eG) [compound 328399],"Fold Increase over UTC (caspase-3 activity, apoptosis)",experiment of Table 10,1.0 fold
